Reference: ChEMBL document CHEMBL1201862, “PubChem BioAssay data set” (2004)
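Five compound concentrations were applied to cells in 96-well plates for 48 hours; endpoints were derived by simple linear interpolation of the resulting dose-response curve. Abbreviation: GI50, concentration required for 50% inhibition of growth.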 Calls of active or inactive are those of the source. Rule as the data show it: active = GI50 up to about 1.1 µM and inactive = higher.

Legend:
Assay in all cases: growth of human tumour cells (NCI), 48 h
786-0 = test system: 786-0
EKVX = test system: EKVX
HCC 2998 = test system: HCC 2998
HCT-15 = test system: HCT-15
HOP-92 = test system: HOP-92
HT-29 = test system: HT-29
K562 = test system: K562
LOX IMVI = test system: LOX IMVI
MCF7 = test system: MCF7
MDA-N = test system: MDA-N
Malme-3M = test system: Malme-3M
NCI-H226 = test system: NCI-H226
NCI-H522 = test system: NCI-H522
OVCAR-3 = test system: OVCAR-3
SF-295 = test system: SF-295
TK-10 = test system: TK-10
UACC-257 = test system: UACC-257
RPMI-8226 = test system: RPMI-8226
SK-MEL-2 = test system: SK-MEL-2

Row | SMILES | GI50 (786-0) | GI50 (EKVX) | GI50 (HCC 2998) | GI50 (HCT-15) | GI50 (HOP-92) | GI50 (HT-29) | GI50 (K562) | GI50 (LOX IMVI) | GI50 (MCF7) | GI50 (MDA-N) | GI50 (Malme-3M) | GI50 (NCI-H226) | GI50 (NCI-H522) | GI50 (OVCAR-3) | GI50 (SF-295) | GI50 (TK-10) | GI50 (UACC-257) | GI50 (RPMI-8226) | GI50 (SK-MEL-2)
1 | CCCCn1c(-c2ccc([N+](=O)[O-])cc2)cs/c1=N/N=C1\C(=O)Nc2ccc(Br)cc21 | 11.8 µM (inactive) | 24.7 µM (inactive) | 17.9 µM (inactive) | 21.9 µM | 26 µM (inactive) | 13.3 µM (inactive) | 15.7 µM (inactive) | 18.9 µM (inactive) | 3.28 µM (inactive) | 16.2 µM (inactive) | 28.3 µM (inactive) | 21.1 µM (inactive) | 14.2 µM (inactive) | 15.5 µM (inactive) | 22.9 µM (inactive) | 12.3 µM (inactive) | 18.2 µM (inactive) | – | –
2 | Cc1cccc(NC(=O)/C=C/c2ccccc2)c1C | > 100 µM (inactive) | > 100 µM (inactive) | > 100 µM (inactive) | > 100 µM | – | > 100 µM (inactive) | > 100 µM (inactive) | > 100 µM (inactive) | > 100 µM (inactive) | > 100 µM (inactive) | > 100 µM (inactive) | > 100 µM (inactive) | > 100 µM (inactive) | > 100 µM (inactive) | > 100 µM (inactive) | > 100 µM (inactive) | > 100 µM (inactive) | > 100 µM (inactive) | > 100 µM (inactive)
3 | COc1cc(C(O)CCBr)c(OC)cc1C (configuration not stated) | 8.32 µM (inactive) | > 100 µM (inactive) | – | 7.4 µM | 23.6 µM (inactive) | 6.17 µM (inactive) | 3.61 µM (inactive) | 8.95 µM (inactive) | 4.37 µM (inactive) | 2.79 µM (inactive) | 22.5 µM (inactive) | 32.9 µM (inactive) | 27.5 µM (inactive) | 13.4 µM (inactive) | 36 µM (inactive) | > 66.8 µM (inactive) | 27.7 µM (inactive) | 6.73 µM (inactive) | 16 µM (inactive)
4 | COc1ccc(/C=N/NC(=O)c2ccc(O)c(CN(C)C)c2)cc1 | > 100 µM (inactive) | > 100 µM (inactive) | > 100 µM (inactive) | > 100 µM | 57 µM (inactive) | > 100 µM (inactive) | > 100 µM (inactive) | > 100 µM (inactive) | > 100 µM (inactive) | > 100 µM (inactive) | > 100 µM (inactive) | > 100 µM (inactive) | 10.5 µM (inactive) | > 100 µM (inactive) | > 100 µM (inactive) | > 100 µM (inactive) | > 100 µM (inactive) | – | > 100 µM (inactive)
5 | COc1ccc(/N=C2/SC(=N/N=c3\sc4ccccc4n3C)S/C2=N/c2ccc(OC)cc2)cc1 | 47.3 µM (inactive) | > 100 µM (inactive) | > 100 µM (inactive) | > 100 µM | 89.1 µM (inactive) | > 100 µM (inactive) | 2.92 µM (inactive) | – | > 100 µM (inactive) | > 100 µM (inactive) | > 100 µM (inactive) | 49 µM (inactive) | 70.8 µM (inactive) | > 100 µM (inactive) | 51.8 µM (inactive) | > 100 µM (inactive) | > 100 µM (inactive) | > 100 µM (inactive) | > 100 µM (inactive)
6 | Cc1ccc2c(c1C)CC1(Cc3c(ccc4c3CCC4)C1=O)C2=O (configuration not stated) | > 100 µM (inactive) | > 100 µM (inactive) | > 100 µM (inactive) | > 100 µM | > 100 µM (inactive) | > 100 µM (inactive) | > 100 µM (inactive) | – | 21.9 µM (inactive) | > 100 µM (inactive) | > 100 µM (inactive) | > 100 µM (inactive) | > 100 µM (inactive) | 65.9 µM (inactive) | > 100 µM (inactive) | > 100 µM (inactive) | > 100 µM (inactive) | > 100 µM (inactive) | > 100 µM (inactive)
7 | Cc1cc(C)c2c(n1)S(=O)(=O)N(CCCN1CCN(c3cccc(C(F)(F)F)c3)CC1)C(C(=O)c1ccc(Cl)cc1)=C2O | 2.47 µM (inactive) | 3.03 µM (inactive) | – | 1.85 µM | 2.5 µM (inactive) | 4.03 µM (inactive) | 2.2 µM (inactive) | 0.515 µM (active) | 3.26 µM (inactive) | 3.15 µM (inactive) | 3.27 µM (inactive) | 2.45 µM (inactive) | 2.7 µM (inactive) | 3.57 µM (inactive) | 3.29 µM (inactive) | 3.01 µM (inactive) | 2.31 µM (inactive) | – | 3.91 µM (inactive)
8 | OC(c1nc2ccccc2s1)(C(F)(F)F)C(F)(F)F | > 100 µM (inactive) | > 100 µM (inactive) | > 100 µM (inactive) | > 100 µM | – | > 100 µM (inactive) | > 100 µM (inactive) | > 100 µM (inactive) | > 100 µM (inactive) | > 100 µM (inactive) | > 100 µM (inactive) | > 100 µM (inactive) | > 100 µM (inactive) | > 100 µM (inactive) | > 100 µM (inactive) | > 100 µM (inactive) | > 100 µM (inactive) | > 100 µM (inactive) | > 100 µM (inactive)
